Experimental data published in PubChem BioAssay AID248 (DTP/NCI, 2004).
“And” between values parts separate entries of the source, which are not always exact repeats. Identical values can stand only once. Toxic doses and inconclusive results are not listed.

Tested on: L1210 leukemia ip in BDF1 mice, survival T/C
Experiment: NCI In Vivo Anticancer Drug Screen. Data for tumor model L1210 Leukemia (intraperitoneal) in B6D2F1 (BDF1) mice
Conditions: endpoint: mean survival time, higher = longer survival
Outline: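 Survival endpoint. Drug-treated group vs vehicle group, expressed as T divided by C. Tumor passaged by transplantation.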

[1] = dose: 100.0 mg/kg/injection, schedule: Q04DX003 (ip), vehicle: Klucel (hydroxypropylcellulose) (HPC)
[2] = dose: 200.0 mg/kg/injection, schedule: Q04DX003 (ip), vehicle: Klucel (hydroxypropylcellulose) (HPC)
[3] = dose: 400.0 mg/kg/injection, schedule: Q04DX003 (ip), vehicle: Klucel (hydroxypropylcellulose) (HPC)
[4] = dose: 100.0 mg/kg/injection, schedule: Q01DX009 (ip), vehicle: Klucel (hydroxypropylcellulose) (HPC)
[5] = dose: 200.0 mg/kg/injection, schedule: Q01DX009 (ip), vehicle: Klucel (hydroxypropylcellulose) (HPC)
[6] = dose: 400.0 mg/kg/injection, schedule: Q01DX009 (ip), vehicle: Klucel (hydroxypropylcellulose) (HPC)
[7] = dose: 100.0 mg/kg/injection, schedule: Q04DX002 (ip), vehicle: Klucel (hydroxypropylcellulose) (HPC)
[8] = dose: 200.0 mg/kg/injection, schedule: Q04DX002 (ip), vehicle: Klucel (hydroxypropylcellulose) (HPC)
[9] = dose: 400.0 mg/kg/injection, schedule: Q04DX002 (ip), vehicle: Klucel (hydroxypropylcellulose) (HPC)
[10] = dose: 50.0 mg/kg/injection, schedule: Q01DX009 (ip), vehicle: saline with Tween-80
[11] = dose: 100.0 mg/kg/injection, schedule: Q01DX009 (ip), vehicle: saline with Tween-80
[12] = dose: 200.0 mg/kg/injection, schedule: Q01DX009 (ip), vehicle: saline with Tween-80
[13] = dose: 6.25 mg/kg/injection, schedule: Q04DX002 (ip), vehicle: Klucel (hydroxypropylcellulose) (HPC)
[14] = dose: 12.5 mg/kg/injection, schedule: Q04DX002 (ip), vehicle: Klucel (hydroxypropylcellulose) (HPC)
[15] = dose: 12.5 mg/kg/injection, schedule: Q01DX001 (ip), vehicle: Klucel (hydroxypropylcellulose) (HPC)
[16] = dose: 100.0 mg/kg/injection, schedule: Q01DX001 (ip), vehicle: carboxymethylcellulose (CMC)
[17] = dose: 200.0 mg/kg/injection, schedule: Q01DX001 (ip), vehicle: carboxymethylcellulose (CMC)
[18] = dose: 400.0 mg/kg/injection, schedule: Q01DX001 (ip), vehicle: carboxymethylcellulose (CMC)
[19] = dose: 100.0 mg/kg/injection, schedule: Q04DX003 (ip), vehicle: saline with Tween-80
[20] = dose: 200.0 mg/kg/injection, schedule: Q04DX003 (ip), vehicle: saline with Tween-80
[21] = dose: 400.0 mg/kg/injection, schedule: Q04DX003 (ip), vehicle: saline with Tween-80

In the case of O=C(Nc1cc([N+](=O)[O-])ccc1F)N(C1CCCCC1)C1CCCCC1, the T/C [1] was 87 % of control, the T/C [2] was 96 % of control and the T/C [3] was 104 % of control.
In the case of CCOc1ccc(/C=C\C(=O)O)cc1, the T/C [4] was 97 % of control, the T/C [5] was 102 % of control and the T/C [6] was 107 % of control.
In the case of O=C(On1c(-c2ccccc2)cc2ccccc21)c1ccc([N+](=O)[O-])cc1, the T/C [7] was 104 % of control, the T/C [8] was 111 % of control and the T/C [9] was 96 % of control.
In the case of CC(C)C(=O)c1ccccc1C(=O)O, the T/C [10] was 93 % of control, the T/C [11] was 93 % of control and the T/C [12] was 93 % of control.
For NC(CSS(=O)(=O)O)=NCCc1ccccc1, the T/C (dose: 3.13 mg/kg/injection, schedule: Q04DX002 (ip), vehicle: Klucel (hydroxypropylcellulose) (HPC)) was 103 % of control, the T/C [13] was 100 % of control and the T/C [14] was 100 % of control.
CCOC(=O)c1nc(N)[nH]c(=O)c1CCCCc1ccccc1 was tested, and the T/C (dose: 150.0 mg/kg/injection, schedule: Q01DX001 (ip), vehicle: saline with Tween-80) was 87 % of control and the T/C (dose: 300.0 mg/kg/injection, schedule: Q01DX001 (ip), vehicle: saline with Tween-80) was 89 % of control.
With CCCC1C2=C(C(=O)OC2=O)C2C(CC)CC3=C(C(=O)OC3=O)C12 (stereo not given) the T/C [15] was 90 % of control, the T/C (dose: 25.0 mg/kg/injection, schedule: Q01DX001 (ip), vehicle: Klucel (hydroxypropylcellulose) (HPC)) was 94 % of control and the T/C (dose: 50.0 mg/kg/injection, schedule: Q01DX001 (ip), vehicle: Klucel (hydroxypropylcellulose) (HPC)) was 94 % of control. The T/C (dose: 56.25 mg/kg/injection, schedule: Q04DX003 (ip), vehicle: Klucel (hydroxypropylcellulose) (HPC)) was 97 % of control, the T/C (dose: 100.0 mg/kg/injection, schedule: Q01DX001 (ip), vehicle: Klucel (hydroxypropylcellulose) (HPC)) was 95 % of control and the T/C (dose: 112.5 mg/kg/injection, schedule: Q04DX003 (ip), vehicle: Klucel (hydroxypropylcellulose) (HPC)) was 95 % of control. For the same molecule, the T/C (dose: 150.0 mg/kg/injection, schedule: Q01DX001 (ip), vehicle: Klucel (hydroxypropylcellulose) (HPC)) was 89 % of control, the T/C (dose: 225.0 mg/kg/injection, schedule: Q01DX001 (ip), vehicle: Klucel (hydroxypropylcellulose) (HPC)) was 97 % of control and the T/C (dose: 225.0 mg/kg/injection, schedule: Q04DX003 (ip), vehicle: Klucel (hydroxypropylcellulose) (HPC)) was 94 % of control.
With CNc1c(Cl)cc(/C=C2\C=Cc3ccccc32)cc1Cl the T/C [16] was 101 % of control, the T/C [17] was 101 % of control and the T/C [18] was 95 % of control.
For O=C(O)c1cc(Cl)ccc1-c1ccc(Cl)cc1C(=O)Nc1ccc2c(c1)Cc1ccccc1-2, the T/C (dose: 75.0 mg/kg/injection, schedule: Q01DX001 (ip), vehicle: carboxymethylcellulose (CMC)) was 102 % of control, the T/C (dose: 150.0 mg/kg/injection, schedule: Q01DX001 (ip), vehicle: carboxymethylcellulose (CMC)) was 113 % of control and the T/C (dose: 300.0 mg/kg/injection, schedule: Q01DX001 (ip), vehicle: carboxymethylcellulose (CMC)) was 104 % of control.
With CN/C([S-])=N/N=C/C(=N/N=C(\[S-])NC)c1ccccc1.[Zn+2] the T/C [13] was 101 % of control and the T/C [14] was 97 % of control.
For CC(=O)OCC(Cl)C(Cl)CCl (stereo not given), the T/C [1] was 96 % of control, the T/C [2] was 95 % of control and the T/C [3] was 95 % of control.
CCOC(=O)NC(NC(=O)OCC)C(Cl)CC (stereo not given) was tested, and the T/C (dose: 100.0 mg/kg/injection, schedule: Q01DX001 (ip), vehicle: saline) was 107 % of control, the T/C (dose: 200.0 mg/kg/injection, schedule: Q01DX001 (ip), vehicle: saline) was 97 % of control and the T/C (dose: 400.0 mg/kg/injection, schedule: Q01DX001 (ip), vehicle: saline) was 101 % of control.
For COc1cc(/C=C2\CN(C)C(=O)C2=O)ccc1O, the T/C [11] was 101 % of control, the T/C [19] was 105 % of control and the T/C [12] was 100 % of control. For the same molecule, the T/C [20] was 98 % of control, the T/C (dose: 400.0 mg/kg/injection, schedule: Q01DX009 (ip), vehicle: saline with Tween-80) was 101 % of control and the T/C [21] was 96 % of control.
With Cc1nc(S(C)(=O)=O)nc(S(C)(=O)=O)c1Cl the T/C (dose: 1.5 mg/kg/injection, schedule: Q01DX001 (ip), vehicle: Klucel (hydroxypropylcellulose) (HPC)) was 92 % of control, the T/C (dose: 3.0 mg/kg/injection, schedule: Q01DX001 (ip), vehicle: Klucel (hydroxypropylcellulose) (HPC)) was 95 % of control and the T/C (dose: 6.0 mg/kg/injection, schedule: Q01DX001 (ip), vehicle: Klucel (hydroxypropylcellulose) (HPC)) was 104 % of control. The T/C (dose: 12.0 mg/kg/injection, schedule: Q01DX001 (ip), vehicle: Klucel (hydroxypropylcellulose) (HPC)) was 104 % of control and the T/C [15] was 107 % of control.
Cc1ccccc1N1C(=O)c2ccccc2C1=O was tested, and the T/C [4] was 95 % of control, the T/C [7] was 96 % of control and the T/C [5] was 98 % of control. The T/C [8] was 86 % of control, the T/C [6] was 98 % of control and the T/C [9] was 93 % of control.
In the case of Cc1nc2ccc(O)cc2cc1CO, the T/C (dose: 50.0 mg/kg/injection, schedule: Q01DX009 (ip), vehicle: saline) was 100 % of control, the T/C (dose: 100.0 mg/kg/injection, schedule: Q01DX009 (ip), vehicle: saline) was 87 % of control and the T/C (dose: 100.0 mg/kg/injection, schedule: Q04DX003 (ip), vehicle: saline) was 104 % of control. For the same molecule, the T/C (dose: 200.0 mg/kg/injection, schedule: Q01DX009 (ip), vehicle: saline) was 89 % of control, the T/C (dose: 200.0 mg/kg/injection, schedule: Q04DX003 (ip), vehicle: saline) was 103 % of control and the T/C (dose: 400.0 mg/kg/injection, schedule: Q01DX009 (ip), vehicle: saline) was 113 % of control. For the same molecule, the T/C (dose: 400.0 mg/kg/injection, schedule: Q04DX003 (ip), vehicle: saline) was 109 % of control.
With COc1cc(N(CCCl)CCCl)c(OC)cc1C=Nc1cccc(Br)c1 the T/C (dose: 26.6 mg/kg/injection, schedule: Q01DX009 (ip), vehicle: carboxymethylcellulose (CMC)) was 105 % of control, the T/C (dose: 40.0 mg/kg/injection, schedule: Q01DX009 (ip), vehicle: carboxymethylcellulose (CMC)) was 96 % of control and the T/C [16] was 120 % of control. The T/C [17] was 107 % of control and the T/C (dose: 266.0 mg/kg/injection, schedule: Q01DX001 (ip), vehicle: carboxymethylcellulose (CMC)) was 157 % of control.
S=C1Nc2ccccc2CS1 was tested, and the T/C [4] was 100 % of control, the T/C [5] was 98 % of control and the T/C [6] was 102 % of control.
With CC(O)C(O)C(O)C(O)/C=N/O (stereo not given) the T/C [1] was 100 % of control, the T/C [2] was 97 % of control and the T/C [3] was 102 % of control.
In the case of Cc1cccc(NC(=S)NC(=O)CCc2ccccc2)c1C, the T/C (dose: 25.0 mg/kg/injection, schedule: Q01DX009 (ip), vehicle: saline with Tween-80) was 94 % of control and 88 % of control, the T/C [10] was 94 % of control and 88 % of control and the T/C (dose: 100.0 mg/kg/injection, schedule: Q01DX001 (ip), vehicle: saline with Tween-80) was 95 % of control. The T/C (dose: 100.0 mg/kg/injection, schedule: Q04DX002 (ip), vehicle: saline with Tween-80) was 95 % of control and 90 % of control, the T/C [19] was 86 % of control and the T/C (dose: 200.0 mg/kg/injection, schedule: Q01DX001 (ip), vehicle: saline with Tween-80) was 98 % of control. For the same molecule, the T/C (dose: 200.0 mg/kg/injection, schedule: Q04DX002 (ip), vehicle: saline with Tween-80) was 93 % of control, the T/C [20] was 89 % of control and the T/C (dose: 400.0 mg/kg/injection, schedule: Q01DX001 (ip), vehicle: saline with Tween-80) was 97 % of control. For the same molecule, the T/C (dose: 400.0 mg/kg/injection, schedule: Q04DX002 (ip), vehicle: saline with Tween-80) was 93 % of control and 102 % of control and the T/C [21] was 86 % of control.
For O=C(O)C1CCCCC1C(=O)NCc1ccccc1Cl (stereo not given), the T/C [7] was 100 % of control, the T/C [8] was 100 % of control and the T/C [9] was 96 % of control.
In the case of c1cc2c3c(cccc3c1)-c1nc3ccccc3nc1-2, the T/C (dose: 50.0 mg/kg/injection, schedule: Q01DX Z (ip), vehicle: methylcellulose (MC)) was 100 % of control, the T/C [16] was 94 % of control and the T/C (dose: 100.0 mg/kg/injection, schedule: Q01DX Z (ip), vehicle: methylcellulose (MC)) was 98 % of control. For the same molecule, the T/C (dose: 125.0 mg/kg/injection, schedule: Q01DX Z (ip), vehicle: methylcellulose (MC)) was 102 % of control, the T/C [17] was 100 % of control and the T/C [18] was 88 % of control.
